Experimental data reported in article PMC5909442 (Nucleic Acids Research, 2018).

Legend:
HpoR (Ms5860) = molecular target: T1, HpoR (Ms5860) (Mycolicibacterium smegmatis, UniProt A0R4J9); test: isothermal titration calorimetry; type: binding
T1 sequence (A0R4J9 1-199): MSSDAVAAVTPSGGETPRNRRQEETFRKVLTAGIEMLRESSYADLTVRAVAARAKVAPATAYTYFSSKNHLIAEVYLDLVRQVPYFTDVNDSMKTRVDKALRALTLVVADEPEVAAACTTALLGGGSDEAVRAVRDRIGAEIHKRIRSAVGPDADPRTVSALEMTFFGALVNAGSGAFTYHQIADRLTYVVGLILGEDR

[1] = molecular target: Mtb HpoR (Rv0767c); HpoRMtb (Mycobacterium tuberculosis, UniProt P9WMD7)
[2] = test system: HpoR (HpoRMS) (Mycobacterium smegmatis mc2 155); test: SPR

Mtb HpoR (Rv0767c); HpoRMtb, sequence (P9WMD7 whole entry): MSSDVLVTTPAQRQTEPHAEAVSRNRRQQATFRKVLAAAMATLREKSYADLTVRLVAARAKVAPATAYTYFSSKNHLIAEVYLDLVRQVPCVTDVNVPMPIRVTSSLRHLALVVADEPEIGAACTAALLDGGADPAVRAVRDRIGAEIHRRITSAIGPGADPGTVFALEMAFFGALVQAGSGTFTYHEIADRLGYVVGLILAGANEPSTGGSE

Compound	Kd (HpoR (Ms5860))	UV cross-linking with radiolabelled ligand, SDS-PAGE autoradiography [1]	binding signal [2]
Nc1nc2c(ncn2[C@@H]2O[C@@H]3COP(=O)(O)O[C@H]4[C@@H](O)[C@H](n5cnc6c(=O)[nH]c(N)nc65)O[C@@H]4COP(=O)(O)O[C@H]3[C@H]2O)c(=O)[nH]1 [c-di-GMP]	1780 ± 230 nM	Mtb HpoR (Rv0767c) showed a good binding ability for c-di-GMP	–
Ms5860p, biotin-labeled	–	–	150 RU
